From paper PMC6265740, “Biochemical and Anti-Triple Negative Metastatic Breast Tumor Cell Properties of Psammaplins” (Marine Drugs, 2018)
Entries after “also recorded” stand apart in the source; their conditions may differ.

Experiments:
[1] = test system: HDAC; assay: MDA-MB-435 cell-based HDAC assay (HDAC-Glo); conditions: MDA-MB-435 cells, 30 min incubation, n = 6 pooled from two experiments
Experimental: Test compounds were added at specified concentrations to exponentially grown cells plated in 96-well plates. After 30 min incubation, the HDAC activity was determined using a commercial kit (HDAC-Glo™, Promega, Madison, WI, USA) and normalized to that of the dimethyl sulfoxide (DMSO) solvent control.
Exponentially grown cells were seeded at the density of 5000 cells/well into 96-well plates (Corning, Corning, NY, USA) and incubated overnight. Compounds dissolved in DMSO were added to achieve the specified final concentrations (total volume: 100 μL, DMSO: 0.5%). The incubation continued for 30 min at 37 °C and the HDAC activity determined using a commercial luminescent assay (HDAC-Glo™, Promega, Madison, WI, USA).

[2] = test system: HIF-1; assay: T47D cell-based reporter assay (pHRE-luc) for HIF-1 activity; set-up: species or system human; conditions: for normalized ratio of pHRE-luc/pGL3-control: T47D
Experimental: Cellular adaptation to hypoxia (low oxygen tension) is primarily mediated via the transcription factor hypoxia-inducible factor-1 (HIF-1), that regulates oxygen homeostasis by activating the expression of genes that increase oxygen availability and those that decrease oxygen consumption. […] In a T47D cell-based reporter assay, a lipid extract sample of the sponge Dendrilla lacunosa activated HIF-1 by 3.56-fold (NIH collection No. C025691, 10 μg mL^−1). Bioassay-guided fractionation of the extract sample (2.6 g) and chemical structure elucidation afforded five known compounds psammaplin E (1), (E,Z)-psammaplin A (2), (E,E)-psammaplin K (3), (E,E)-psammaplin A (4), and bisaprasin (5). To determine the effects of 1–5 on HIF-1 activity, concentration-response studies were performed in a T47D cell-based reporter assay (Figure 1B). An iron chelator (1,10-phenanthroline, 10 μM) was included as a positive control. Compounds 1–4 activated HIF-1 in a biphasic manner. […] Hypoxia (1% O2) and chemical hypoxia (iron chelators or transition metals) represent two common stimuli that activate HIF-1 [24, 25, 26]. Further studies were performed to determine the effects of 1–5 on HIF-1 activity in the presence of other stimuli (1,10-phenanthroline, Figure 1C; hypoxia, Figure 1D). While 1–4 acted synergistically with 1,10-phenanthroline and hypoxia to activate HIF-1, a biphasic pattern of activation similar to that in the absence of stimulus […] was observed. […] Previous studies reported that psammaplins inhibit histone deacetylase (HDAC) enzymes. To determine if HDAC inhibition non-specifically activates HIF-1, concentration-response studies were conducted in T47D cells transfected with the pGL3-control plasmid. […] One possible scenario is that these compounds incur significant amount of cellular stress at higher concentrations, leading to the inhibition of gene expression in general.
Figure 1 Concentration-dependent biphasic effects of 1–4 on HIF-1 activation. (A) Structures of psammaplins isolated from Dendrilla lacunosa. (B) Concentration-response results of 1–5 in T47D cells transfected with pHRE-luc for HIF-1 activity. Test compounds were added at the increasing concentrations of 0.1, 0.3, 1, 3, 10, and 30 µM, as specified. The positive control 1,10-phenanthroline (1,10-phen) was used at 10 µM. Data shown are average ± standard deviation (n = 3). (C) Similar to described in (B) except that the pHRE-luc transfected T47D cells were exposed to test compounds in the presence of 10 µM 1,10-phen, and the data were normalized to the positive control (1,10-phen). (D) Similar to described in (C) except that hypoxic exposure (1% O2: 5% CO2: 94% N2, 16 h) was applied in place of 1,10-phen. (E) As described in (B) except that T47D cells were transfected with the pGL3-control construct. An asterisk “*” indicates p < 0.05 when compared to the controls (“Media” for B, D, and E; and “1,10-phen” for C).
To monitor HIF-1 activity, T47D cells were transfected with the pHRE3-TK-Luc construct and the cell-based luciferase reporter assay was performed as described. Cells were exposed to test compounds in the absence and presence of 1,10-phenanthroline (10 μM) or hypoxic conditions (1% O2: 5% CO2: 94% N2) for 16 h. The cells were lysed and luciferase activity determined with a commercial kit (Promega, Madison, WI, USA). For the cell-based control reporter assay, T47D cells were transfected with the pGL3-control construct (Promega, Madison, WI, USA), exposed to test compounds for 16 h, and the luciferase reporter assay performed as described.

[3] = test system: VEGF protein; assay: ELISA of cellular and secreted VEGF proteins in T47D cells; type: cell-based, human; conditions: normalized to cellular proteins
Description: (§1) Around 100 genes have been identified as HIF-1 target genes that encode proteins involved in various aspects of cellular physiology. While most of these genes are regulated in a cell type-specific manner, some are induced upon HIF-1 activation in most cell types. Based on availability and potency, compound 4 (a stereoisomer of 2) was selected for follow-up studies. The effects of 4 on the expression of HIF-1 target genes cyclin dependent kinase inhibitor 1A (CDKN1A) and vascular endothelial growth factor A (VEGFA) were examined by quantitative real time RT-PCR (Figure 2). The HIF-1 activator 1,10-phen (10 μM) and the pan-HDAC inhibitor TSA (0.1 and 1 μM, respectively) were included as positive controls. In T47D cells, 4 and TSA each increased the levels of CDKN1A mRNA in a concentration-dependent manner (2.9-fold for 4 at 10 μM and 7.2-fold for TSA at 1 μM, Figure 2A). In contrast, neither 4 nor TSA exerted greater than 20% effect on the levels of VEGF mRNA (Figure 2B). The gene VEGF encodes vascular endothelial growth factor A (a potent angiogenic factor) and agents that inhibit VEGF are in clinical use for cancer. The expression of cellular and secreted VEGF proteins was examined in T47D cells by ELISA assay.
Figure 2 Effects of 4 and trichostatin A (TSA) on HIF-1 target gene expression. T47D cells were exposed to 4 and TSA at the specified concentrations for 16 h. The compound 1,10-phen (10 µM) was included as a positive control. The levels of cyclin dependent kinase inhibitor 1A (CDKN1A) (A) and vascular endothelial growth factor (VEGF) (B) mRNA following treatments were determined by quantitative real time RT-PCR. Relative levels of target gene mRNA normalized to an internal control (18S rRNA) are shown as average ± standard deviation (n = 3, one representative experiment). The levels of cellular (C) and secreted VEGF protein (D) were determined by ELISA and normalized to the amount of cellular proteins. Data shown are average + standard deviation (n = 3). An asterisk “*” indicates p < 0.05 when compared to the media control.
(§2) The effects of test samples on HIF-1 target gene expression were assessed in T47D cells. To determine the levels of CDKN1A and VEGF mRNA, quantitative real-time RT-PCR was performed as described. To determine the levels of cellular and secreted VEGF proteins, T47D cells were exposed to compounds as described, the levels of VEGF proteins in the conditioned medium and cell lysate samples determined by ELISA [21], the amount of proteins in the cell lysate samples quantified using a micro BCA assay kit (Thermo Fisher Scientific, Rockford, IL, USA), and the level of VEGF proteins normalized to that of cellular proteins.

[4] = test system: BoM spheroids; assay: Cultrex 3D spheroid cell invasion assay; type: cell-based, human; conditions: for invasion of BoM spheroids into the extracellular matrix: 96 h (T96), 4 and TSA at 48 h proliferation IC50
Experimental: In order to form metastatic lesions, metastasis-initiating tumor cells must invade and intravasate into the lymphatic vasculature and/or blood vessels. Psammaplins were evaluated in a Cultrex® 3-D cell invasion assay that monitors the invasion and migration of tumor cells grown as spheroids, which closely model in vivo pathophysiological conditions.
Figure 5 Inhibition of bone metastatic BoM cell invasion. Tumor cell spheroids formed in a special spheroid formation extracellular matrix (ECM) were embedded in an invasion matrix containing 10% fetal bovine serum (FBS) in the presence and absence of compounds at the specified concentrations. Four days later (T96), cell invasion was recorded microscopically (the bar at the bottom right represents 100 µm).
The 3D spheroid cell invasion assay was performed using a commercial kit, following the manufacturer’s instructions (Cultrex® 3D Spheroid Cell Invasion Assay, Trevigen, Gaithersburg, MD, USA). Briefly, exponentially grown MDA-MB-231, LM, BoM, and BrM cells were trypsinized, collected, and resuspended in serum-free DMEM/F12 media. For spheroid formation, 3000 cells were added in a volume of 50 µL serum-free DMEM/F12 media with 1× spheroid formation solution/well into a pre-cooled 96-well plate. The plate was centrifuged at 100× g for 5 min at 4 °C, incubated at 37 °C for 24 h, and the spheroids imaged using an Axiovert 40 CFL microscope (Zeiss, Oberkochen, Germany). The plate was placed on ice, the invasion mix added in a volume of 50 µL/well, centrifuged at 350× g for 5 min at 4 °C, and incubated at 37 °C for 1 h. Test compounds and controls were diluted to two times the final concentrations in DMEM/F12 media supplemented with FBS (10%) and antibiotics, and added in a volume of 100 µL/well. The incubation continued for another 4 days at 37 °C and the cells/spheroids imaged (T96).

[5] = test system: CDKN1A mRNA; assay: Quantitative real time RT-PCR of CDKN1A mRNA in T47D cells; type: cell-based, human; conditions: 16 h
Description: Around 100 genes have been identified as HIF-1 target genes that encode proteins involved in various aspects of cellular physiology. While most of these genes are regulated in a cell type-specific manner, some are induced upon HIF-1 activation in most cell types. Based on availability and potency, compound 4 (a stereoisomer of 2) was selected for follow-up studies. The effects of 4 on the expression of HIF-1 target genes cyclin dependent kinase inhibitor 1A (CDKN1A) and vascular endothelial growth factor A (VEGFA) were examined by quantitative real time RT-PCR (Figure 2). The HIF-1 activator 1,10-phen (10 μM) and the pan-HDAC inhibitor TSA (0.1 and 1 μM, respectively) were included as positive controls. […]
(§3) Figure 2 Effects of 4 and trichostatin A (TSA) on HIF-1 target gene expression. […] The levels of cyclin dependent kinase inhibitor 1A (CDKN1A) (A) and vascular endothelial growth factor (VEGF) (B) mRNA following treatments were determined by quantitative real time RT-PCR. […] The levels of cellular (C) and secreted VEGF protein (D) were determined by ELISA and normalized to the amount of cellular proteins. […]
The effects of test samples on HIF-1 target gene expression were assessed in T47D cells. To determine the levels of CDKN1A and VEGF mRNA, quantitative real-time RT-PCR was performed as described. […]

[6] = test system: VEGF mRNA; assay: Quantitative real time RT-PCR of VEGF mRNA in T47D cells; type: cell-based, human; conditions: 16 h, concentrations tested
Description: as §1, with “The gene VEGF encodes vascular endothelial growth factor A (a potent angiogenic factor) and agents that inhibit VEGF are in clinical use for cancer. The expression of cellular and secreted VEGF proteins was examined in T47D cells by ELISA assay.” left out
as §3, §2

[7] = test system: T47D, MDA-MB-231, LM, BoM, BrM cells; assay: Clonogenic assay; type: cell-based, human; conditions: 24 h exposure, 10 days; 1 µM paclitaxel and TSA, 10 µM 1–5
Experimental: The effects of psammaplins on the colony-forming ability of single cells were assessed in a clonogenic assay. Cells seeded at low density were exposed to test compounds at the specified concentrations for 24 h. The conditioned media were replaced with growth media and the colonies formed from surviving single cells in 10 days.
Figure 4 Effects of 1–5 and TSA (trichostatin A) on colony formation. Cells plated at low density were exposed to compounds (24 h) at specified concentrations (1 µM for paclitaxel and TSA, and 10 µM for 1–5). After a period of ten days, the cells were fixed and stained.
For the clonogenic assay, exponentially grown cells were seeded at the density of 1000 cells/well into 6-well plates (Cellstar®, Greiner Bio-One GmbH, Kremsmünster, Austria) and incubated at 37 °C for 4 h to allow the cells to adhere. Compound addition was similar as above. After 24 h, the compound-containing conditioned media were replaced with fresh medium containing FBS (10%) and antibiotics. The incubation continued for another 10 days with a change of fresh medium every 5 days, the cells were fixed with methanol and stained with crystal violet (1 mg/mL in 20% ethanol), and the images were acquired with a Kodak digital camera.

SMILES | IC50 [1] | VEGF expression, cellular protein [3] | VEGF expression, secreted protein [3] | invasion of BoM spheroids into the extracellular matrix [4] | effect on the levels of VEGF mRNA [6] | further results
O=C(NCCSSCCNC(=O)/C(Cc1cc(O)c(O)c(Br)c1)=N/O)/C(Cc1ccc(O)c(Br)c1)=N/O [Compound 3, (E,E)-psammaplin K] | 38 nM | – | – | – | – | HIF-1 activation (highest level) ([2]; T47D pHRE-luc, 10 μM, 16 h, no stimulus, n = 3): 10.15 ± 0.66 fold; normalized ratio of pHRE-luc/pGL3-control ([2]; 10 μM): 2.38 fold
O=C(NCCSSCCNC(=O)/C(Cc1ccc(O)c(Br)c1)=N/O)/C(Cc1ccc(O)c(Br)c1)=N/O [Compound 4, (E,E)-psammaplin A] | 37 nM | None of the HDAC inhibitors examined (4 and TSA) increased VEGF protein levels | None of the HDAC inhibitors examined (4 and TSA) increased VEGF protein levels | inhibited the invasion of BoM spheroids; also recorded: inhibited this invasion | ≤ 20% | increase in CDKN1A mRNA level ([5]; 10 μM): 2.9 fold; HIF-1 activation (highest level) ([2]; T47D pHRE-luc, 3 μM, 16 h, no stimulus, n = 3): 11.01 ± 0.71 fold; normalized ratio of pHRE-luc/pGL3-control ([2]; 3 μM): 2.30 fold
O=C(NCCSSCCNC(=O)/C(Cc1cc(Br)c(O)c(-c2cc(C/C(=N\O)C(=O)NCCSSCCNC(=O)/C(Cc3ccc(O)c(Br)c3)=N/O)cc(Br)c2O)c1)=N/O)/C(Cc1ccc(O)c(Br)c1)=N/O [Compound 5, bisaprasin] | 948 nM | – | – | – | – | HIF-1 activation ([2]; T47D pHRE-luc, 30 μM, 16 h, no stimulus, n = 3): 2.17 ± 0.13 fold; effect on HIF-1 activity in the presence of other stimuli ([2]; T47D pHRE-luc, with 1,10-phenanthroline (10 µM) or hypoxia (1% O2), 16 h): inhibited HIF-1 activation at higher concentrations
CC(/C=C/C(=O)NO)=C\[C@@H](C)C(=O)c1ccc(N(C)C)cc1 [TSA, trichostatin A] | – | None of the HDAC inhibitors examined (4 and TSA) increased VEGF protein levels | None of the HDAC inhibitors examined (4 and TSA) increased VEGF protein levels | inhibited the invasion of BoM spheroids | ≤ 20% | increase in CDKN1A mRNA level ([5]; 1 μM): 7.2 fold
CC(=O)O[C@H]1C(=O)[C@@]2(C)[C@H]([C@H](OC(=O)c3ccccc3)[C@]3(O)C[C@H](OC(=O)[C@H](O)[C@@H](NC(=O)c4ccccc4)c4ccccc4)C(C)=C1C3(C)C)[C@]1(OC(C)=O)CO[C@@H]1C[C@@H]2O [paclitaxel] | – | – | – | – | – | size of the spheroids ([4]; 96 h, in comparison to the HDAC inhibitors): more pronounced decrease in the size of the spheroids; colony formation [7]: blocked colony formation in all cell lines
